“And” between values parts separate entries of the source, which are not always exact repeats. Equal entries are not always repeated.
Assays:
BChE (from equine serum) = target: T1, BChE (from equine serum) (Equus caballus, UniProt P81908); experiment: biochemical; details: for IC50: 15 min preincubation, read-out: IC50 (µM) BChE
T1 construct: BChE (from equine serum); purchased Sigma-Aldrich; host or cells: equine serum
Experimental: (§1) AChE assays were performed as described by Ellman et al.[41] with slight modifications. […] DTNB was used for color development, caused by reaction between it and thiocholine (a product of AChE). For inhibitory assays, compounds were preincubated with AChE for 15 min prior to ATCI and DTNB addition. BChE activity was assayed using the same method, but BTCI was used instead of ATCI.
(§2) Inhibitions of the activities of AChE, BChE, MAO-A, and MAO-B by the 15 compounds were investigated at an inhibitor concentration of 10 µM. IC50 values were also determined. […] The inhibition types and Ki values were determined using Lineweaver–Burk Plots and secondary plots.

[1] = target: T2, AChE (Type VI-S; from Electrophorus electricus) (Electrophorus electricus, UniProt O42275); experiment: biochemical; details: for IC50 / remaining activity at 10 µM / Residual activity at 10 µM (%) AChE: 15 min preincubation; for IC50: read-out: IC50 (µM) AChE; for remaining activity at 10 µM: read-out: Residual activity at 10 µM (%) AChE, inhibitor 10 µM; for SI = IC50 of AChE/ IC50 of BChE: selectivity index; for Ki: Lineweaver–Burk and secondary plots, read-out: Ki value for AChE inhibition; for Inhibition type, AChE: Lineweaver–Burk plots; for Residual activity at 10 µM (%) AChE: inhibitor 10 µM
T2 construct: AChE (Type VI-S; from Electrophorus electricus); purchased Sigma-Aldrich Type VI-S (catalogue number not given)
Experimental: as §1, §2

[2] = test system: LPS-stimulated RAW264.7 cells; parameters: method as in PMID 31704444; details: at 10 µg/µL; cited from earlier work
recombinant human MAO-B = target: T3, recombinant human MAO-B (Homo sapiens, UniProt P27338); experiment: MAO-B inhibition assay (benzylamine); type: biochemical; details: inhibitor 10 µM; read-out: Residual activity at 10 µM (%) MAO-B
T3 construct: purchased Sigma-Aldrich
T3 sequence (P27338 1-520): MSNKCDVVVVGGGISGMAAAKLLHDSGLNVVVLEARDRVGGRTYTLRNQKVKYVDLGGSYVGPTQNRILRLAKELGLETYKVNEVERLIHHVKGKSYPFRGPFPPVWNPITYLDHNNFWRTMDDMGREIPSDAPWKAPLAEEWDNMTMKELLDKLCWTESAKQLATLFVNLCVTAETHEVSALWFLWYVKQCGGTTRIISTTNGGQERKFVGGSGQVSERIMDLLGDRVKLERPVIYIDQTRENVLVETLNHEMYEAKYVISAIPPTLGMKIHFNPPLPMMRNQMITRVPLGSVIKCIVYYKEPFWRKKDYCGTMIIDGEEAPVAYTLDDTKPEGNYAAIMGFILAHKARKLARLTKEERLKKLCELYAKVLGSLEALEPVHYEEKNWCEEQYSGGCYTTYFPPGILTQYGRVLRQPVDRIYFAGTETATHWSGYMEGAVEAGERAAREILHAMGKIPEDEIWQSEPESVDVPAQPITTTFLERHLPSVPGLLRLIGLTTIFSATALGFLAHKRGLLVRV
Experimental: as §1, §2

recombinant human MAO-A = target: T4, recombinant human MAO-A (Homo sapiens, UniProt P21397); experiment: MAO-A inhibition assay (kynuramine); type: biochemical; details: inhibitor 10 µM; read-out: Residual activity at 10 µM (%) MAO-A
T4 construct: purchased Sigma-Aldrich
T4 sequence (P21397 1-527): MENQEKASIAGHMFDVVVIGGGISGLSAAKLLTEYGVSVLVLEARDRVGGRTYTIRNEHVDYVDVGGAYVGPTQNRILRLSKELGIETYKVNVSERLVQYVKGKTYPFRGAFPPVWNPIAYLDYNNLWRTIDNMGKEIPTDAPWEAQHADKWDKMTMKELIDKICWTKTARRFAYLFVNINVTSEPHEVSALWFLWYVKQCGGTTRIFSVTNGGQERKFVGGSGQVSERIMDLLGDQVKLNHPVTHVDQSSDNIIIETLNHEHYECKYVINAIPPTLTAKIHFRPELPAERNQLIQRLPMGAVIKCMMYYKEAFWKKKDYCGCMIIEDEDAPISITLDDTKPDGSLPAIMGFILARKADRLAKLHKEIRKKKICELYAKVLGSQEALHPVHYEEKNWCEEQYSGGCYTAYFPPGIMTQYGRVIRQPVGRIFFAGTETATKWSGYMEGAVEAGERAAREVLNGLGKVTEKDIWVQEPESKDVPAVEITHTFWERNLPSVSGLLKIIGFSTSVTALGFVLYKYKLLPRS
Experimental: as §1, §2

[3] = parameters: method as in PMID 31704444; details: up to 10 µg/µL (i.e., ~ 25 mM); cited from earlier work
BChE = target: T5, BChE (Equus caballus, UniProt P81908); experiment: Reversibility of BChE inhibition by dialysis; type: biochemical, equine
T5 construct: BChE (from equine serum); purchased Sigma-Aldrich; host or cells: equine serum
Experimental: (§3) Inhibitor reversibilities were examined using the dialysis method, using with AChE or BChE, rather than MAO enzymes. […] Dialysis was conducted for 6 h with stirring and two buffer changes. Residual activities before (AU) and after (AD) dialysis were compared to those of non-treated controls, and reversibility types were determined by comparing AD and AU values.
(§4) For recovery experiments, preincubated enzyme mixtures were dialyzed as described in the text.

AChE = target: T6, AChE (Electrophorus electricus, UniProt O42275); experiment: Reversibility of AChE inhibition by dialysis; type: biochemical; details: for Reversibility of AChE inhibition: dialysis method; for Residual AChE activity before dialysis (AU) / Residual AChE activity after dialysis (AD): inhibitor ~ 2 × IC50: PJ13, 20 µM, PJ15, 20 µM, tacrine, 0.54 µM; for Residual AChE activity before dialysis (AU): 30 min preincubation; for Residual AChE activity after dialysis (AD): dialysis 6 h
T6 construct: AChE (Type VI-S; from Electrophorus electricus); purchased Sigma-Aldrich Type VI-S (catalogue number not given)
Experimental: as §3, §4

T2 sequence (O42275 24-633): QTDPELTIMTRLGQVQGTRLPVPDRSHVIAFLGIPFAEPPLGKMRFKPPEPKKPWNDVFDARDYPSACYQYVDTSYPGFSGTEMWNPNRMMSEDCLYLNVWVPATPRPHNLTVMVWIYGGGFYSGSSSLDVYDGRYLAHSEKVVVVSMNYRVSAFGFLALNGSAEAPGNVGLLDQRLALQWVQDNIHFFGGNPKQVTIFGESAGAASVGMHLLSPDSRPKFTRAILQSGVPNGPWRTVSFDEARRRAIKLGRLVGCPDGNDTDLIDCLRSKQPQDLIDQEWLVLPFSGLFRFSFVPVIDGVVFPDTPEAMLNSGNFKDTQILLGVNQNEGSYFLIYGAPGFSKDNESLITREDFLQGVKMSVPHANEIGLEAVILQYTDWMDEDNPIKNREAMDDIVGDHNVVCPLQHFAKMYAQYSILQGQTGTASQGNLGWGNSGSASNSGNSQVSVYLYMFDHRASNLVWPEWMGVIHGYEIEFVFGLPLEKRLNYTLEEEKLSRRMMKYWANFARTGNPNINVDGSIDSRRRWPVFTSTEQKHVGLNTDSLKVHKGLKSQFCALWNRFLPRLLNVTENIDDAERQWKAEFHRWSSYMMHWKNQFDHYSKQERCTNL
T6 sequence (O42275 24-633): as above
T5 sequence (P81908 whole entry): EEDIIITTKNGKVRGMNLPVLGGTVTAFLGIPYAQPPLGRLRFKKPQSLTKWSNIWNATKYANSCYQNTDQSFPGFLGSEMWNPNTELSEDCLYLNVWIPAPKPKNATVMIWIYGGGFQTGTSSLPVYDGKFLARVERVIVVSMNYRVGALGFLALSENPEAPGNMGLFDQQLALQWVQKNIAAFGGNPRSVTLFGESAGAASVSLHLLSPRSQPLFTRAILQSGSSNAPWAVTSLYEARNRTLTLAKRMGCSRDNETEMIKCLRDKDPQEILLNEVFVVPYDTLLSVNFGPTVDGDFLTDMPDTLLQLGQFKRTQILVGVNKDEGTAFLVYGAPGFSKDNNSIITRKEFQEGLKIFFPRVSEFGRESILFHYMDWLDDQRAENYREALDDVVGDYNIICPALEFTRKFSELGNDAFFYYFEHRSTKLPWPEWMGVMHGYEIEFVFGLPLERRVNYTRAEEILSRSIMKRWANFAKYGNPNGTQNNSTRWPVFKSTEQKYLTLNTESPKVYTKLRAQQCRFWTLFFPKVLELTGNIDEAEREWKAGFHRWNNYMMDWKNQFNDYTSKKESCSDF
T1 sequence (P81908 whole entry): as above

| Structure (SMILES) | IC50 (BChE (from equine serum)) | Ki (BChE (from equine serum); Lineweaver–Burk and secondary plots, read-out: Ki value for BChE inhibition) [µM] | Inhibition type, BChE (BChE (from equine serum); Lineweaver–Burk plots) | IC50 [1] [µM] | remaining activity at 10 µM [1] [%] | SI = IC50 of AChE/ IC50 of BChE [1] | Anti-inflammatory effects [2] | remaining activity at 10 µM (recombinant human MAO-B) [%] | remaining activity at 10 µM (recombinant human MAO-A) [%] | Toxicity [3] | Reversibility of BChE inhibition (BChE; dialysis method) | Residual BChE activity before dialysis (AU) (BChE; inhibitor ~ 2 × IC50: PJ5, 14 µM, tacrine, 0.54 µM, 30 min preincubation) [%] | Residual BChE activity after dialysis (AD) (BChE; inhibitor ~ 2 × IC50: PJ5, 14 µM, tacrine, 0.54 µM, dialysis 6 h) [%] | Ki [1] [µM] | Inhibition type, AChE [1] | Residual activity at 10 µM (%) AChE [1] [%] | Reversibility of AChE inhibition (AChE) | Residual AChE activity before dialysis (AU) (AChE) [%] | Residual AChE activity after dialysis (AD) (AChE) [%] |
| --- | --- | --- | --- | --- | --- | --- | --- | --- | --- | --- | --- | --- | --- | --- | --- | --- | --- | --- | --- |
| C/C=C(/C)C(=O)O[C@@H]1c2c(ccc3ccc(=O)oc23)OC(C)(C)[C@@H]1OC(=O)C=C(C)C [PJ5, senecioyl-4′-angeloyl-khellactone] | 7.22 µM and 7.2 µM | 4.16 | mixed-type | > 40 | 96 ± 2.83 | > 5.54 | potent | 96 ± 0.52 | 84.7 ± 9.3 | non-toxic | reversible | 41.2 | 86.8 | – | – | – | – | – | – |
| C/C=C(/C)C(=O)O[C@@H]1[C@H](OC(=O)C(C)CC)c2c(ccc3ccc(=O)oc23)OC1(C)C (some centres unmarked) [PJ13, 3′-angeloyl-4′-(2-methylbutyryl)khellactone] | > 40 µM | – | – | 9.28 ± 0.094 | < 50 | < 0.23 | potent | 64.6 ± 8.82 | 88.5 ± 5.41 | non-toxic | – | – | – | 5.98 | mixed-type | 48.0 ± 9.40 | reversible | 34.7 | 72.3 |
| CCC(C)C(=O)O[C@@H]1c2c(ccc3ccc(=O)oc23)OC(C)(C)[C@@H]1OC(=O)CC(C)C (some centres unmarked) [PJ15, 3′-isovaleryl-4′-(2-methylbutyroyl)khellactone] | > 40 µM | – | – | 10 ± 0.48 | < 50 | < 0.25 | potent | 73.3 ± 7.21 | 76.9 ± 4.2 | non-toxic | – | – | – | 10.4 | mixed-type | 50.0 ± 2.82 | reversible | 32.8 | 68.7 |
